# Like-named read-outs stand apart in the source and are kept apart here.
# How the values were obtained:
# [1] = tested on: E. coli GAR 6649 TEM, OXA, CTX (By PCR only); experiment: MIC microbroth dilution; β-lactamase class A, A (ESBL), D; assay type: cell-based; settings: Cefepime alone
# Procedure: (§1) The in vitro activities of the antibiotics were determined by the microbroth dilution method as recommended by the National Committee for Clinical Laboratory Standards (NCCLS). (NCCLS. 2000. Methods for Dilution Antimicrobial Susceptibility Tests for Bacteria That Grow Aerobically; Approved Standards: M7-A5, vol. 19. National Committee for Clinical Laboratory Standards, Villanova, Pa.). Mueller-Hinton II broth (MHBII)(BBL Cockeysville, Md.), was used for the testing procedure. […]. The plates were incubated for 18-22 hours at 35° C. in ambient air.
# [2] = tested on: S. marcescens GC 1781 (Sme-1 + AmpC); experiment: MIC microbroth dilution; β-lactamase class A (Cb'ase), C; assay type: cell-based; settings: Serratia marcescens, Cefepime alone, read-out: MIC
# Procedure: as §1
# [3] = tested on: E. coli GAR 5929 TEM, OXA, Act-1, CTX (By PCR only); experiment: MIC microbroth dilution; β-lactamase class A, C, D; assay type: cell-based; settings: Cefepime alone
# Procedure: as §1
# [4] = tested on: P. aeruginosa PT 8411 PTZ-R; experiment: MIC microbroth dilution; assay type: cell-based; settings: Cefepime alone
# Procedure: as §1
# [5] = tested on: P. aeruginosa PT 8503 PTZ-R; experiment: MIC microbroth dilution; assay type: cell-based; settings: Cefepime alone
# Procedure: as §1
# [6] = tested on: P. aeruginosa PT 9587 PTZ-R; experiment: MIC microbroth dilution; assay type: cell-based; settings: Cefepime alone
# Procedure: as §1
# [7] = tested on: P. aeruginosa PT 9236 PTZ-R; experiment: MIC microbroth dilution; assay type: cell-based; settings: Cefepime alone
# Procedure: as §1
# [8] = tested on: K. pn GC 6655 (TEM-1 + ACT-1); experiment: MIC microbroth dilution; β-lactamase class A, C; assay type: cell-based, K. pneumoniae; settings: Klebsiella pneumoniae, Cefepime alone, read-out: MIC
# Procedure: as §1
# [9] = tested on: K. pn GC 3104 (MIR-1 + TEM-1); experiment: MIC microbroth dilution; β-lactamase class A, C; assay type: cell-based, K. pneumoniae; settings: Klebsiella pneumoniae, Cefepime alone, read-out: MIC
# Procedure: as §1
# K. pn GC 1516 (TEM-26) = experiment: MIC microbroth dilution; β-lactamase class A (ESBL); assay type: cell-based, K. pneumoniae; settings: Cefepime alone
# Procedure: as §1
# K. pn GC 6639 (SHV-13) = experiment: as above; assay type: cell-based, K. pneumoniae; settings: Cefepime alone
# Procedure: as §1
# K. pn GC 1832 (SHV-4) = experiment: as above; assay type: cell-based, K. pneumoniae; settings: Cefepime alone
# Procedure: as §1
# K. pn GC 1510 (TEM-10) = experiment: as above; assay type: cell-based, K. pneumoniae; settings: Klebsiella pneumoniae, Cefepime alone, read-out: MIC
# Procedure: as §1
# K. pn GC 1830 (SHV-2) = experiment: as above; assay type: cell-based, K. pneumoniae; settings: Klebsiella pneumoniae, Cefepime alone, read-out: MIC
# Procedure: as §1
# [10] = tested on: K. pn GC 6494 (TEM-1 + SHV-5); experiment: MIC microbroth dilution; β-lactamase class A, A (ESBL); assay type: cell-based, K. pneumoniae; settings: Klebsiella pneumoniae, Cefepime alone, read-out: MIC
# Procedure: as §1
# [11] = tested on: K. pn GC 6651 (TEM-1 + SHV-1 + SHV-5); experiment: as above; assay type: cell-based, K. pneumoniae; settings: Klebsiella pneumoniae, Cefepime alone, read-out: MIC
# Procedure: as §1
# [12] = tested on: K. pn GC 2006 (TEM-10 + SHV-1); experiment: as above; assay type: cell-based, K. pneumoniae; settings: Klebsiella pneumoniae, Cefepime alone, read-out: MIC
# Procedure: as §1
# [13] = tested on: K. pn GC 1963 (TEM-10 + SHV-1 + SHV-ESBL); experiment: as above; assay type: cell-based, K. pneumoniae; settings: Cefepime alone
# Procedure: as §1
# [14] = tested on: K. pn GC 6488 (TEM-1 + SHV-5 + SHV-7); experiment: as above; assay type: cell-based, K. pneumoniae; settings: Klebsiella pneumoniae, Cefepime alone, read-out: MIC
# Procedure: as §1
# [15] = tested on: K. pn GC 3057 (CAZ-R; P/T-R); experiment: as above; assay type: cell-based, K. pneumoniae; settings: Cefepime alone
# Procedure: as §1
# [16] = tested on: K. pn GC 1507 (TEM-9 + SHV-1); experiment: as above; assay type: cell-based, K. pneumoniae; settings: Cefepime alone
# Procedure: as §1
# [17] = tested on: K. pn GC 6657 (TEM-1 + SHV-27); experiment: as above; assay type: cell-based, K. pneumoniae; settings: Cefepime alone
# Procedure: as §1
# [18] = tested on: K. pn GC 1554 (TEM-1 + TEM-26 + SHV-1); experiment: as above; assay type: cell-based, K. pneumoniae; settings: Klebsiella pneumoniae, Cefepime alone, read-out: MIC
# Procedure: as §1
# E. coli GC 1480 OXA-1 = experiment: MIC microbroth dilution; β-lactamase class D; assay type: cell-based; settings: Escherichia coli, GC1480OXA1, E. coli GC 1480, Cefepime alone, read-out: MIC
# Procedure: as §1
# E. coli GC 1807 OXA-7 = experiment: MIC microbroth dilution; β-lactamase class D; assay type: cell-based; settings: Escherichia coli, GC1807OXA7, E. coli GC 1807, Cefepime alone, read-out: MIC
# Procedure: as §1
# [19] = tested on: E. cloacae PT 1494 Inducible AmpC; experiment: MIC microbroth dilution; β-lactamase class C; assay type: cell-based; settings: Cefepime alone
# Procedure: as §1
# [20] = tested on: P. aeruginosa GC 1764 (AmpC); experiment: MIC microbroth dilution; β-lactamase class C; assay type: cell-based; settings: Cefepime alone
# Procedure: as §1
# [21] = tested on: K. pneumoniae GC 7822 Act 1; experiment: MIC microbroth dilution; β-lactamase class C; assay type: cell-based
# Procedure: as §1
# [22] = tested on: E. cloacae GC 1477 (AmpC); experiment: MIC microbroth dilution; β-lactamase class C; assay type: cell-based; settings: Enterobacter cloacae, Cefepime alone, read-out: MIC
# Procedure: as §1
# E. coli GC 6539 CMY-2 = experiment: MIC microbroth dilution; β-lactamase class C; assay type: cell-based
# Procedure: as §1
# [23] = tested on: E. cloacae PT 967 Inducible AmpC; experiment: MIC microbroth dilution; β-lactamase class C; assay type: cell-based; settings: Cefepime alone
# Procedure: as §1
# [24] = tested on: A. baumannii PT 8321 PTZ-R; experiment: MIC microbroth dilution; β-lactamase class not determined; assay type: cell-based; settings: Cefepime alone
# Procedure: as §1
# [25] = tested on: A. baumannii PT 9158 PTZ-R; experiment: as above; assay type: cell-based; settings: Cefepime alone
# Procedure: as §1
# [26] = Escherichia coli, control of Compound 1 test, read-out: MIC
# [27] = Klebsiella pneumoniae, control of Compound 1 test, read-out: MIC
# [28] = Enterobacter cloacae, control of Compound 1 test, read-out: MIC
# [29] = Cefepime alone, control of Compound 2 test
smiles,measurement,setting,value
"CO/N=C(\C(=O)N[C@@H]1C(=O)N2C(C(=O)[O-])=C(C[N+]3(C)CCCC3)CS[C@H]12)c1csc(N)n1 [Cefepime, reference compound]",MIC,[1]; control of Compound 2 test,>16 µg/mL
same,MIC,[1]; [26],> 16 µg/mL
same,MIC,[2]; control of Compound 1 test,0.25 µg/mL
same,MIC,[2]; control of Compound 2 test,0.06 µg/mL
same,MIC,[3]; control of Compound 2 test,>16 µg/mL
same,MIC,[3]; [26],> 16 µg/mL
same,MIC,[4]; control of Compound 2 test,16 µg/mL
same,MIC,"[4]; Pseudomonas aeruginosa, PT8411PTZR, control of Compound 1 test, read-out: MIC",16 µg/mL
same,MIC,[5]; control of Compound 2 test,8 µg/mL
same,MIC,"[5]; Pseudomonas aeruginosa, PT8503PTZR, control of Compound 1 test, read-out: MIC",8 µg/mL
same,MIC,[6]; control of Compound 2 test,4 µg/mL
same,MIC,"[6]; Pseudomonas aeruginosa, PT9587PTZR, control of Compound 1 test, read-out: MIC",4 µg/mL
same,MIC,[7]; control of Compound 2 test,>16 µg/mL
same,MIC,"[7]; Pseudomonas aeruginosa, PT9236PTZR, control of Compound 1 test, read-out: MIC",> 16 µg/mL
same,MIC,[8]; control of Compound 1 test,2 µg/mL
same,MIC,[8]; control of Compound 2 test,4 µg/mL
same,MIC,[9]; control of Compound 1 test,0.5 µg/mL
same,MIC,[9]; control of Compound 2 test,1 µg/mL
same,MIC,K. pn GC 1516 (TEM-26); control of Compound 2 test,>16 µg/mL
same,MIC,K. pn GC 1516 (TEM-26); [27],> 16 µg/mL
same,MIC,K. pn GC 6639 (SHV-13); control of Compound 2 test,>16 µg/mL
same,MIC,K. pn GC 6639 (SHV-13); [27],> 16 µg/mL
same,MIC,K. pn GC 1832 (SHV-4); control of Compound 2 test,2 µg/mL
same,MIC,K. pn GC 1832 (SHV-4); [27],2 µg/mL
same,MIC,K. pn GC 1510 (TEM-10); control of Compound 1 test,0.5 µg/mL
same,MIC,K. pn GC 1510 (TEM-10); control of Compound 2 test,2 µg/mL
same,MIC,K. pn GC 1830 (SHV-2); control of Compound 1 test,1 µg/mL
same,MIC,K. pn GC 1830 (SHV-2); control of Compound 2 test,0.5 µg/mL
same,MIC,[10]; control of Compound 1 test,4 µg/mL
same,MIC,[10]; control of Compound 2 test,2 µg/mL
same,MIC,[11]; control of Compound 1 test,8 µg/mL
same,MIC,[11]; control of Compound 2 test,4 µg/mL
same,MIC,[12]; control of Compound 1 test,> 16 µg/mL
same,MIC,[12]; control of Compound 2 test,8 µg/mL
same,MIC,[13]; control of Compound 2 test,>16 µg/mL
same,MIC,[13]; [27],> 16 µg/mL
same,MIC,[14]; control of Compound 1 test,8 µg/mL
same,MIC,[14]; control of Compound 2 test,4 µg/mL
same,MIC,[15]; control of Compound 2 test,>16 µg/mL
same,MIC,[15]; [27],> 16 µg/mL
same,MIC,[16]; control of Compound 2 test,8 µg/mL
same,MIC,[16]; [27],8 µg/mL
same,MIC,[17]; control of Compound 2 test,0.12 µg/mL
same,MIC,[17]; [27],0.12 µg/mL
same,MIC,[18]; control of Compound 1 test,> 16 µg/mL
same,MIC,[18]; control of Compound 2 test,8 µg/mL
same,MIC,E. coli GC 1480 OXA-1; control of Compound 1 test,4 µg/mL
same,MIC,E. coli GC 1480 OXA-1; control of Compound 2 test,2 µg/mL
same,MIC,E. coli GC 1807 OXA-7; control of Compound 1 test,0.12 µg/mL
same,MIC,E. coli GC 1807 OXA-7; control of Compound 2 test,0.25 µg/mL
same,MIC,[19]; control of Compound 2 test,0.25 µg/mL
same,MIC,[19]; [28],0.25 µg/mL
same,MIC,[20]; control of Compound 2 test,8 µg/mL
same,MIC,"[20]; Pseudomonas aeruginosa, control of Compound 1 test, read-out: MIC",8 µg/mL
same,MIC,[21]; [29],>16 µg/mL
same,MIC,"[21]; Klebsiella pneumoniae, GC7822ACT1, Cefepime alone, control of Compound 1 test, read-out: MIC",> 16 µg/mL
same,MIC,[22]; control of Compound 1 test,4 µg/mL
same,MIC,[22]; control of Compound 2 test,2 µg/mL
same,MIC,E. coli GC 6539 CMY-2; [29],2 µg/mL
same,MIC,"E. coli GC 6539 CMY-2; Escherichia coli, GC6539CMY2, Cefepime alone, control of Compound 1 test, read-out: MIC",2 µg/mL
same,MIC,[23]; control of Compound 2 test,0.12 µg/mL
same,MIC,[23]; [28],0.12 µg/mL
same,MIC,"[24]; Acinetobacter baumannii, PT8321PTZR, control of Compound 1 test, read-out: MIC",> 16 µg/mL
same,MIC,[24]; control of Compound 2 test,>16 µg/mL
same,MIC,"[25]; Acinetobacter baumannii, PT9158PTZR, control of Compound 1 test, read-out: MIC",> 16 µg/mL
same,MIC,[25]; control of Compound 2 test,>16 µg/mL

# From patent US20070129344A1, “Bicyclic 6-alkylidene-penem beta-lactamase inhibitors and beta-lactam antibiotic combination: a broad spectrum antibiotic” (priority 2005, published 2007)
